# Measured values: patent publication US20080058332A1, “2,4,6-Trisubstituted Pyrimidines as Phosphotidylinositol (Pi) 3-Kinase Inhibitors and Their Use in the Treatment of Cancer” (priority 2004, published 2008)
# Assays:
# p110α Type Ia human PI3K = molecular target: T1, p110α Type Ia human PI3K (Homo sapiens, UniProt P42336); assay: In vitro enzyme assay (AlphaScreen), inhibition of phosphorylation of PI(4,5)P2 by recombinant Type I PI3K; assay type: biochemical; details: DiC8-PI(4,5)P2 40 μM, ATP 4 μM, read-out: IC50 versus p110α Type Ia human PI3K, Test (a)
# T1 construct: full length DNA of each of the p110α, p110β and p110δ Type Ia human PI3K p110 isoforms; 6-His; made in house
# Text: (a) In Vitro Enzyme Assay
# The assay used AlphaScreen technology (Gray et al., Analytical Biochemistry, 2003, 313: 234-245) to determine the ability of test compounds to inhibit phosphorylation by recombinant Type I PI3K enzymes of the lipid PI(4,5)P2.
# DNA fragments encoding human PI3K catalytic and regulatory subunits were isolated from cDNA libraries using standard molecular biology and PCR cloning techniques. The selected DNA fragments were used to generate baculovirus expression vectors. In particular, full length DNA of each of the p110α, p110β and p110δ Type Ia human PI3K p110 isoforms (EMBL Accession Nos. HSU79143, S67334, Y10055 for p110α, p110β and p110δ respectively) were sub-cloned into a pDEST10 vector (Invitrogen Limited, Fountain drive, Paisley, UK). The vector is a Gateway-adapted version of Fastbac1 containing a 6-His epitope tag. A truncated form of Type Ib human PI3K p110γ isoform corresponding to amino acid residues 144-1102 (EMBL Accession No. X8336A) and the full length human p85α regulatory subunit (EMBL Accession No. HSP13KIN) were also sub-cloned into pFastBac1 vector containing a 6-His epitope tag. The Type Ia p110 constructs were co-expressed with the p85α regulatory subunit. Following expression in the baculovirus system using standard baculovirus expression techniques, expressed proteins were purified using the His epitope tag using standard purification techniques.
# DNA corresponding to amino acids 263 to 380 of human Grp1 PH domain was isolated from a cDNA library using standard molecular biology and PCR cloning techniques. […]
# Biotinylated-DiC8-PI(3,4,5)P3 (50 nM; Cell Signals Inc., Catalogue No. 107), recombinant purified GST-Grp1 PH protein (2.5 nM) and AlphaScreen Anti-GST donor and acceptor beads (100 ng; Packard Bioscience Limited, Station Road, Pangbourne, Berkshire, UK, Catalogue No. 6760603M) were added and the assay plates were left for about 5 to 20 hours at ambient temperature in the dark. The resultant signals arising from laser light excitation at 680 nm were read using a Packard AlphaQuest instrument. […]
# [1] = system: phosphorylation of Serine 473 in Akt; assay: In vitro phospho-Ser473 Akt assay in MDA-MB-468 cells; assay type: cell-based; details: Homo sapiens, 2 hours incubation, read-out: IC50, Test (b), inhibition of phosphorylation of Serine 473 in Akt
# Experimental: (b) In Vitro phospho-Ser473 Akt Assay
# This assay determines the ability of test compounds to inhibit phosphorylation of Serine 473 in Akt as assessed using Acumen Explorer technology (Acumen Bioscience Limited), a plate reader that can be used to rapidly quantitate features of images generated by laser-scanning.
# A MDA-MB-468 human breast adenocarcinoma cell line (LGC Promochem, Teddington, Middlesex, UK, Catalogue No. HTB-132) was routinely maintained at 37° C. with 5% CO2 up to a confluency of 70-90% in Dulbecco's modified Eagle's growth medium (DMEM; Invitrogen Limited, Paisley, UK Catalogue No. 41966-029) containing 10% heat-inactivated foetal calf serum (FCS; Sigma, Poole, Dorset, UK, Catalogue No. F0392) and 1% L-glutamine (Gibco, Catalogue No. 25030-024).
# For the assay, the cells were detached from the culture flask using ‘Accutase’ (Innovative Cell Technologies Inc., San Diego, Calif., USA; Catalogue No. AT104) using standard tissue culture methods and resuspended in media to give 1.7×10^5 cells per ml. […]
# All subsequent aspiration and wash steps were carried out using a Tecan 96 well plate washer (aspiration speed 10 mm/sec). […] An aliquot of PBS (50 μl) was added to each well and the plates were sealed with black plate sealers and the fluorescence signal was detected and analysed. […]
# [2] = system: MDA-MB-468 human breast adenocarcinoma cells; assay: In vitro MDA-MB-468 human breast adenocarcinoma proliferation assay; assay type: cell-based; details: 48 hours incubation, BrdU incorporation, read-out: IC50, Test (c), inhibition of MDA-MB-468 cell growth
# Text: (c) In Vitro MDA-MB-468 Human Breast Adenocarcinoma Proliferation Assay
# This assay determines the ability of test compounds to inhibit cell proliferation as assessed using Cellomics Arrayscan technology. A MDA-MB-468 human breast adenocarcinoma cell line (LGC Promochem, Catalogue No. HTB-132) was routinely maintained as described in Biological Assay (b) hereinbefore.
# For the proliferation assay, the cells were detached from the culture flask using Accutase and seeded into the inner 60 wells of a black Packard 96 well plate at a density of 8000 cells per well in 100 μl of complete growth media. The outer wells contained 100 μl of sterile PBS. The cells were incubated overnight at 37° C. with 5% CO2 to allow them to adhere.
# On day 2, the cells were treated with test compounds and incubated for 48 hours at 37° C. with 5% CO2. […]
# BrdU incorporation was detected by incubation for 1 hour at ambient temperature with mouse anti-BrdU antibody (50 μl; Caltag, Burlingame, Calif., US; Catalogue No. MD5200) that was diluted 1:40 in PBS containing 1% BSA and 0.05% Tween-20. […] Subsequently, PBS (100 μl) was added to each well and the plates were analysed using a Cellomics array scan to assess total cell number and number of BrdU positive cells.
# Fluorescence dose response data obtained with each compound were analysed and the degree of inhibition of MDA-MB-468 cell growth was expressed as an IC50 value.
# T1 sequence (P42336 whole entry, canonical isoform): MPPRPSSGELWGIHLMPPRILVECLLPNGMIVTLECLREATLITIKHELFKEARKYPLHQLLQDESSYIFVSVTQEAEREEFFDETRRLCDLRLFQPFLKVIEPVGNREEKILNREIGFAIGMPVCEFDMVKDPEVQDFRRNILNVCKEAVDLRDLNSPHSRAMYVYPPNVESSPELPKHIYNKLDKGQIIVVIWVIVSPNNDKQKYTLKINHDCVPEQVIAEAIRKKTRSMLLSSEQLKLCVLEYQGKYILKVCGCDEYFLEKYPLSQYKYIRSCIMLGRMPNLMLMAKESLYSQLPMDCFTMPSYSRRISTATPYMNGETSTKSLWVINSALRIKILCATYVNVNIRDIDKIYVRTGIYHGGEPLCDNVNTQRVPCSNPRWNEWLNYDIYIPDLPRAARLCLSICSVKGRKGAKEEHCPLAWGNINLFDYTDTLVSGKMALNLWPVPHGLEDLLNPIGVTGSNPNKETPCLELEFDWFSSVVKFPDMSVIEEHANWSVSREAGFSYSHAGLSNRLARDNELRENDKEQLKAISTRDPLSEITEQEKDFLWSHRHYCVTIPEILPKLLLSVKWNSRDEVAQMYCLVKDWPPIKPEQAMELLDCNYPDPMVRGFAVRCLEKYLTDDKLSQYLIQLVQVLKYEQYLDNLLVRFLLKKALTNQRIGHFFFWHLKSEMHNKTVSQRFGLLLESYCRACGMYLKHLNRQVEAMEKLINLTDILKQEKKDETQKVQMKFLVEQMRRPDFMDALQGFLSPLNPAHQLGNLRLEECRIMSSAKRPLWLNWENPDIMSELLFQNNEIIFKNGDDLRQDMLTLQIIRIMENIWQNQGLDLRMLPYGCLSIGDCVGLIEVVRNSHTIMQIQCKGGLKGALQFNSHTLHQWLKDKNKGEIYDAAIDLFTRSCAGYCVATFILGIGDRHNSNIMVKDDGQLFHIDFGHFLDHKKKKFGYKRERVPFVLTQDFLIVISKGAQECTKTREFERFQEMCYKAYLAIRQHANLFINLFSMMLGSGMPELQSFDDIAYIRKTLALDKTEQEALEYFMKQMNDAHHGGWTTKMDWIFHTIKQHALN
# T1 sequence (P27986 whole entry partner, canonical isoform): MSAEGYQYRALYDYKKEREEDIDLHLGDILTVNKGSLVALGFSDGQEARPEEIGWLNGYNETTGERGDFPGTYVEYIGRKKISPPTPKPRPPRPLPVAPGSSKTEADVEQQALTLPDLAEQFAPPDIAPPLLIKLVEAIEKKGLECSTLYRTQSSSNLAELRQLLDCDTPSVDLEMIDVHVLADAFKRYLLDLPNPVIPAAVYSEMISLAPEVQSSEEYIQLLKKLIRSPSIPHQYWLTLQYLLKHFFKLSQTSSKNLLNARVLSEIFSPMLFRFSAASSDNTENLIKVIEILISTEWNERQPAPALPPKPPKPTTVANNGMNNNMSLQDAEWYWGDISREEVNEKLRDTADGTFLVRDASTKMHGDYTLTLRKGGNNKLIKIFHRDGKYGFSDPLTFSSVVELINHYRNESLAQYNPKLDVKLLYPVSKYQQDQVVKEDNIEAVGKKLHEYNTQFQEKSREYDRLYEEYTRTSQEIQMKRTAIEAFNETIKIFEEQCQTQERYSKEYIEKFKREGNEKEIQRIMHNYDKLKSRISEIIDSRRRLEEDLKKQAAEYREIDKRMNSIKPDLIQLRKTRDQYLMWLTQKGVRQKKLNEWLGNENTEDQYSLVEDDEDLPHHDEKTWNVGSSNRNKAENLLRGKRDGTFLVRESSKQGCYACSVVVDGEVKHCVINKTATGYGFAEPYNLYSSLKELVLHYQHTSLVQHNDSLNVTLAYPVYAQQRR
SMILES,IC50 (p110α Type Ia human PI3K) [nM],IC50 [1] [nM],IC50 [2] [nM]
"NCc1cccc(C(=O)Nc2cccc(-c3nc(-c4cccc(CO)c4)cc(N4CCOCC4)n3)c2)c1 [Example 6(48), 2-[3-(3-aminomethylbenzamido)phenyl]-4-(3-hydroxymethylphenyl)-6-morpholinopyrimidine]",~1000,~1800,~5000
"O=C(Nc1cccc(-c2nc(-c3cccc(O)c3)cc(N3CCOCC3)n2)c1)C1CCNCC1 [Example 4(3), 4-(3-hydroxyphenyl)-6-morpholino-2-(3-piperidin-4-ylcarbonylaminophenyl)pyrimidine]",~1000,–,–
"N[C@H]1CCC[C@@H](CC(=O)Nc2cccc(-c3nc(-c4cccc(CO)c4)cc(N4CCOCC4)n3)c2)C1 [Example 6(33), 2-(3-{2-[(1R,3S)-3-aminocyclohex-1-yl]acetamido]phenyl}-4-(3-hydroxymethylphenyl)-6-morpholinopyrimidine]",~700,~5100,~10000
